In US8415339B2, “Bactericidal anti-MRSA active pharmaceutical composition containing carbapenems” (priority 2007, dated 2013):
“And” between values parts separate entries of the source, which are not always exact repeats. Equal values may be shown once.

Key:
MRSA 7268/02 [1] = test: Agar diffusion (plate/disk) test, inhibition zone; assay type: cell-based, Staph. aureus; conditions: 20 hrs at 37° C.; for zone of inhibition at 10 µg/disc: Staphylococcus aureus, MRSA, 20 h, read-out: Diameter of inhibition zone
Description: (§1) Inhibition zone diameters were determined on Difco Nutrient Agar (10 ml) in sterile dishes (8.5 cm) using ca. 10^6-10^7 colony forming units. 0.2 ml of a bacterial suspension (overnight culture in Difco Nutrient Broth) was mixed at 52° C. with the sterile liquid agar. It solidified at room temperature. Sterile filter disks (6 mm) were placed on the agar surface. Appropriate volumes of a 0.2% aqueous solutions of antibiotics were transferred to the disks by a precision syringe. Alternatively, commercial impregnated disks (Oxoid) were used.
(§2) The inhibition zone diameter was measured after 20 hrs at 37° C. For determination of bactericidal activity, incubation at 37° C. was continued for additional 40 hrs. A clear inhibition zone after additional incubation indicated bactericidity (B).

Staph. Innsbruck [2] = test: Agar diffusion (plate/disk) test, inhibition zone; assay type: cell-based, Staph. aureus; conditions: 20 hrs at 37° C.; for zone of inhibition at 10 µg/disc: Staphylococcus aureus, 20 h, read-out: Diameter of inhibition zone
Description: as §1, §2

MRSA 7268/02 [3] = test: Minimal inhibitory concentration, agar dilution; assay type: cell-based, Staph. aureus; conditions: Difco Nutrient Agar, 20 hrs at 37° C., combinations as a + b; for MIC: Staphylococcus aureus, MRSA
Description: (§3) Minimal inhibitory concentrations were determined using Difco Nutrient Agar. Appropriate volumes of 0.1% aqueous solutions of antibiotics were added into sterile dishes (8.5 cm) in twofold dilutions and mixed with 10 ml of sterile liquid agar of 50° C. The solid agar was inoculated with 3 μl of an 0.5 McFarland bacterial solution in Difco Nutrient Broth, corresponding to approx. 10^5 colony forming units. Bacterial growth was recorded after 20 hrs of incubation at 37° C.

Staph. Innsbruck [4] = test: Minimal inhibitory concentration, agar dilution; assay type: cell-based, Staph. aureus; conditions: Difco Nutrient Agar, 20 hrs at 37° C., combinations as a + b; for MIC: Staphylococcus aureus
Description: as §3

MRSA 7268/02 [5] = test: Time dependent counting of colony forming units (cfu); assay type: cell-based, Staph. aureus
MRSA München 12797 = test: Mouse septicaemia test; assay type: in vivo; conditions: s. c., at 1 hr and 4 hr after i.v. infection, observed 10 days
Description: In vivo activity was determined by a mouse septicaemia test using immunocompetent animals of 30 g weight (6 animals per group). Infection was performed with MRSA München 12797 at a concentration of approx. 2×10^9 cfu/mouse by the i.v. route (lethal dose). Therapy was performed at daily doses from 5+5 to 75+75 mg/kg by s. c. route (equivalent amounts at time 1 hr and 4 hr after infection).

[6] = single antibiotic 30 μg per disk
[7] = carbapenem alone 10 μg per disk

CC1(C)S[C@@H]2[C@H](NC(=O)[C@H](N)c3ccc(O)cc3)C(=O)N2[C@H]1C(=O)O [Amoxicillin]
Diameter of inhibition zone (MRSA 7268/02 [1]; [6]): 0 mm | Diameter of inhibition zone (Staph. Innsbruck [2]; [6]): 10 mm | MIC (MRSA 7268/02 [3]): 32 µg/mL | MIC (Staph. Innsbruck [4]): 64 µg/mL

CC1(C)S[C@@H]2[C@H](NC(=O)[C@H](N)c3ccccc3)C(=O)N2[C@H]1C(=O)O [Ampicillin]
Diameter of inhibition zone (MRSA 7268/02 [1]; [6]): 12 mm | Diameter of inhibition zone (Staph. Innsbruck [2]; [6]): 12 mm

CC1(C)S[C@@H]2[C@H](NC(=O)C(C(=O)O)c3ccccc3)C(=O)N2[C@H]1C(=O)O (stereo partly shown) [Carbenicillin]
Diameter of inhibition zone (MRSA 7268/02 [1]; [6]): 0 mm

N[C@@H](C(=O)N[C@@H]1C(=O)N2C(C(=O)O)=C(Cl)CS[C@H]12)c1ccccc1 [Cefaclor]
Diameter of inhibition zone (MRSA 7268/02 [1]; [6]): 11 mm

Cc1nnc(SCC2=C(C(=O)O)N3C(=O)[C@@H](NC(=O)Cn4cnnn4)[C@H]3SC2)s1 [Cefazolin]
Diameter of inhibition zone (MRSA 7268/02 [1]; [6]): 0 mm | Diameter of inhibition zone (Staph. Innsbruck [2]; [6]): 0 mm

C=CC1=C(C(=O)O)N2C(=O)[C@@H](NC(=O)/C(=N\O)c3csc(N)n3)[C@H]2SC1 [Cefdinir]
Diameter of inhibition zone (MRSA 7268/02 [1]; [6]): 0 mm

C=CC1=C(C(=O)O)N2C(=O)[C@@H](NC(=O)/C(=N\OCC(=O)O)c3csc(N)n3)[C@H]2SC1 [Cefixim]
Diameter of inhibition zone (Staph. Innsbruck [2]; [6]): 0 mm

CCN1CCN(C(=O)N[C@@H](C(=O)N[C@@H]2C(=O)N3C(C(=O)O)=C(CSc4nnnn4C)CS[C@H]23)c2ccc(O)cc2)C(=O)C1=O [Cefoperazone]
Diameter of inhibition zone (MRSA 7268/02 [1]; [6]): 9 mm

CO/N=C(\C(=O)N[C@@H]1C(=O)N2C(C(=O)O)=C(COC(C)=O)CS[C@H]12)c1csc(N)n1 [Cefotaxime]
Diameter of inhibition zone (MRSA 7268/02 [1]; [6]): 0 mm | Diameter of inhibition zone (Staph. Innsbruck [2]; [6]): 0 mm

CN(C)CCn1nnnc1SCC1=C(C(=O)O)N2C(=O)[C@@H](NC(=O)Cc3csc(N)n3)[C@H]2SC1 [Cefotiam]
Diameter of inhibition zone (Staph. Innsbruck [2]; [6]): 0 mm

CO[C@@]1(NC(=O)Cc2cccs2)C(=O)N2C(C(=O)O)=C(COC(N)=O)CS[C@@H]21 [Cefoxitin]
Diameter of inhibition zone (MRSA 7268/02 [1]; [6]): 0 mm | Diameter of inhibition zone (Staph. Innsbruck [2]; [6]): 11 mm | MIC (Staph. Innsbruck [4]): 32 µg/mL

NC(=O)c1cc[n+](CC2=C(C(=O)[O-])N3C(=O)[C@@H](NC(=O)[C@@H](c4ccccc4)S(=O)(=O)O)[C@H]3SC2)cc1 [Cefsudolin]
Diameter of inhibition zone (MRSA 7268/02 [1]; [6]): 0 mm | Diameter of inhibition zone (Staph. Innsbruck [2]; [6]): 0 mm

CO/N=C(\C(=O)N[C@@H]1C(=O)N2C(C(=O)O)=C(CSc3nc(=O)c(=O)[nH]n3C)CS[C@H]12)c1csc(N)n1 [Ceftriaxon]
Diameter of inhibition zone (MRSA 7268/02 [1]; [6]): 0 mm | Diameter of inhibition zone (Staph. Innsbruck [2]; [6]): 0 mm

CO/N=C(\C(=O)N[C@@H]1C(=O)N2C(C(=O)O)=C(COC(N)=O)CS[C@H]12)c1ccco1 [Cefuroxim]
Diameter of inhibition zone (MRSA 7268/02 [1]; [6]): 0 mm

CC(=O)OCC1=C(C(=O)O)N2C(=O)[C@@H](NC(=O)Cc3cccs3)[C@H]2SC1 [Cephalothin]
Diameter of inhibition zone (MRSA 7268/02 [1]; [6]): 0 mm

Cc1onc(-c2ccccc2Cl)c1C(=O)N[C@@H]1C(=O)N2[C@@H]1SC(C)(C)[C@@H]2C(=O)O [Cloxacillin]
Diameter of inhibition zone (MRSA 7268/02 [1]; [6]): 0 mm | Diameter of inhibition zone (Staph. Innsbruck [2]; [6]): 0 mm

Cc1onc(-c2c(Cl)cccc2Cl)c1C(=O)N[C@@H]1C(=O)N2[C@@H]1SC(C)(C)[C@@H]2C(=O)O [Dicloxacillin]
Diameter of inhibition zone (MRSA 7268/02 [1]; [6]): 0 mm | Diameter of inhibition zone (Staph. Innsbruck [2]; [6]): 0 mm

CC1(C)S[C@@H]2[C@H](NC(=O)[C@H](N)C3=CCC=CC3)C(=O)N2[C@H]1C(=O)O [Epicillin]
Diameter of inhibition zone (MRSA 7268/02 [1]; [6]): 14 mm and 12 mm | Diameter of inhibition zone (Staph. Innsbruck [2]; [6]): 10 mm and 14 mm and 12 mm | Minimal Inhibitory concentration (MRSA 7268/02 [3]): 32 µg/mL | Minimal Inhibitory concentration (Staph. Innsbruck [4]): 32 µg/mL | Reduction of cfu's, substance used alone (MRSA 7268/02 [5]): Neither epicillin, nor linezolide showed any significant reduction of cfu's

C[C@@H](O)[C@H]1C(=O)N2C(C(=O)O)=C(S[C@@H]3CN[C@H](C(=O)Nc4cccc(C(=O)O)c4)C3)[C@H](C)[C@H]12 [Ertapenem]
zone of inhibition at 10 µg/disc (MRSA 7268/02 [1]; [7]): 0 mm | zone of inhibition at 10 µg/disc (Staph. Innsbruck [2]; [7]): 0 mm

COCSC1=C(C(=O)[O-])N2C(=O)[C@H]([C@@H](C)O)[C@H]2[C@H]1C.[K+] [GH 478, Potassium (1R,5S,6S)-6-[(R)-1-hydroxyethyl]-2-methoxymethylthio-1-methylcarbapen-2-em-3-carboxylate]
Diameter of inhibition zone (Staph. Innsbruck [2]; [7]): 0 mm

CC(=O)NCSC1=C(C(=O)[O-])N2C(=O)[C@H]([C@@H](C)O)[C@H]2[C@H]1C.[K+] [GH 519, Potassium (1R,5S,6S)-2-[(N-acetylamino)methylthio]-6-[(R)-1-hydroxyethyl]-1-methyl-carbapenen-2-em-3-carboxylate]
Diameter of inhibition zone (MRSA 7268/02 [1]; [7]): 0 mm | Diameter of inhibition zone (Staph. Innsbruck [2]; [7]): 0 mm

C[C@@H](O)[C@H]1C(=O)N2C(C(=O)O)=C(SCOCCN)[C@H](C)[C@H]12 [GH 570, (1R,5S,6S)-2-[(2-Aminoethyl)oxy]metlhylthio-6-[(R)-1-hydroxyethyl]-1-methylcarbapen-2-em-3-carboxylic acid]
Diameter of inhibition zone (MRSA 7268/02 [1]; [7]): 0 mm | Diameter of inhibition zone (Staph. Innsbruck [2]; [7]): 0 mm

C[C@@H](O)[C@H]1C(=O)N2C(C(=O)O)=C(SCCN=CN)C[C@H]12 [Imipenem]
zone of inhibition at 10 µg/disc (MRSA 7268/02 [1]; [7]): 8 mm | zone of inhibition at 10 µg/disc (Staph. Innsbruck [2]; [7]): 8 mm

C[C@@H](O)[C@H]1C(=O)N2C(C(=O)O)=C(S[C@@H]3CN[C@H](C(=O)N(C)C)C3)[C@H](C)[C@H]12 [Meropenem]
zone of inhibition at 10 µg/disc (MRSA 7268/02 [1]; [7]): 13 mm | zone of inhibition at 10 µg/disc (Staph. Innsbruck [2]; [7]): 14 mm | MIC (MRSA 7268/02 [3]): 16 µg/mL | MIC (Staph. Innsbruck [4]): 32 µg/mL | Bactericidal effect compared with epicillin/meropenem 2+2 μg/ml (MRSA 7268/02 [5]; 4 μg/ml alone): less bactericidal than the epicillin/meropenem composition at 2+2 μg/ml | ED90 (MRSA München 12797): > 75+75 mg/kg

COc1cccc(OC)c1C(=O)N[C@@H]1C(=O)N2[C@@H]1SC(C)(C)[C@@H]2C(=O)O [Methicillin]
Diameter of inhibition zone (Staph. Innsbruck [2]; [6]): 0 mm

CO[C@@]1(NC(=O)C(C(=O)O)c2ccc(O)cc2)C(=O)N2C(C(=O)O)=C(CSc3nnnn3C)CO[C@@H]21 (stereo partly shown) [Moxalactam]
Diameter of inhibition zone (Staph. Innsbruck [2]; [6]): 8 mm

Cc1onc(-c2ccccc2)c1C(=O)N[C@@H]1C(=O)N2[C@@H]1SC(C)(C)[C@@H]2C(=O)O [Oxacillin]
Diameter of inhibition zone (MRSA 7268/02 [1]; [6]): 0 mm | Diameter of inhibition zone (Staph. Innsbruck [2]; [6]): 0 mm

CCN1CCN(C(=O)N[C@@H](C(=O)N[C@@H]2C(=O)N3[C@@H]2SC(C)(C)[C@@H]3C(=O)O)c2ccccc2)C(=O)C1=O [Piperacillin]
Diameter of inhibition zone (MRSA 7268/02 [1]; [6]): 0 mm | Diameter of inhibition zone (Staph. Innsbruck [2]; [6]): 0 mm

CN[C@H](CC(C)C)C(=O)N[C@H]1C(=O)N[C@@H](CC(N)=O)C(=O)N[C@H]2C(=O)N[C@H]3C(=O)N[C@H](C(=O)N[C@H](C(=O)O)c4cc(O)cc(O)c4-c4cc3ccc4O)[C@H](O)c3ccc(c(Cl)c3)Oc3cc2cc(c3O[C@@H]2O[C@H](CO)[C@@H](O)[C@H](O)[C@H]2O[C@H]2C[C@](C)(N)[C@H](O)[C@H](C)O2)Oc2ccc(cc2Cl)[C@H]1O [Vancomycin]
Diameter of inhibition zone (MRSA 7268/02 [1]; [6]): 19 mm | Diameter of inhibition zone (Staph. Innsbruck [2]; [6]): 20 mm

CC(=O)NC[C@H]1CN(c2ccc(N3CCOCC3)c(F)c2)C(=O)O1 [linezolide]
Reduction of cfu's, substance used alone (MRSA 7268/02 [5]): Neither epicillin, nor linezolide showed any significant reduction of cfu's
